Literature values as cited in PMC6843717 (ACS Omega, 2019).

Settings: FDA-approved small molecules for advanced breast cancer; cited from earlier work

Q: Which bioavailability does the source give for CC(=O)O[C@H]1C(=O)[C@@]2(C)[C@H]([C@H](OC(=O)c3ccccc3)[C@]3(O)C[C@H](OC(=O)[C@H](O)[C@@H](NC(=O)c4ccccc4)c4ccccc4)C(C)=C1C3(C)C)[C@]1(OC(C)=O)CO[C@@H]1C[C@@H]2O [paclitaxel] here?
A: Its bioavailability is roughly 11%.
